Patent US20090275653A1, “POLYMORPHIC FORMS OF LADOSTIGIL TARTRATE” (priority 2005, published 2009)

What was measured:
[1] = system: animal models of Alzheimer's disease; details: background statement, literature; cited from earlier work
[2] = Hygroscopicity study: exposure to 0-100% relative humidity at room temperature (Karl Fischer, TGA, crystal form by XRD); type: physicochemical; design: TGA: unit not given here
Description: Form E was placed for 1 week under 0-100% relative humidity at room temperature. Table 1 summarizes the results:
Form F was placed for 14 days under 0-100% relative humidity at room temperature. Table 2 summarizes the results:
Form H was placed for 14 days under 0-100% relative humidity at room temperature. Table 3 summarizes the results:
Form J1 was placed for 9 days under 0-100% relative humidity at room temperature. Table 4 summarizes the results:
Table 5 summarizes the results:
X-Ray powder diffraction data were obtained by method known in the art using a SCINTAG powder X-Ray diffractometer model X'TRA equipped with a solid state detector. Copper radiation of 1.5418 Å was used. A round aluminum sample holder with round zero background quartz plate, with a cavity of 25(diameter)*0.5(depth) mm was used.
(§1) TGA analysis was performed using a Mettler M3 meter. The weight of the samples was about 10 mg. The samples were scanned at a rate of 10° C./min from 25° C. to 200° C. The oven was constantly purged with nitrogen gas at a flow rate of 40 ml/min. Standard 70 μl alumina crucibles covered by lids with 1 hole were used.
(§2) The water content of ladostigil tartrate was measured by methods known in the art, such Karl Fischer analysis.
Crystal form was determined after equilibration of ladostigil tartrate form A for 10 days at various relative humidities at room temperature.
Form A1 was exposed at various humidity conditions at room temperature for 13 days.
Ladostigil tartrate form A1 was exposed to various humidity conditions at room temperature for 14 days. TGA was performed, and the crystal form was analyzed.
A mixture of ladostigil tartrate form A1 and E, containing primarily form A1, was exposed at various humidity conditions at room temperature for 14 days.
Form E was placed for 7 days under 0-100% relative humidity at room temperature. Table 12 summarizes the results:
Form F was placed for 14 days under 0-100% relative humidity at room temperature. Table 14 summarizes the results:
Ladostigil tartrate Form H was exposed for 14 days under 0-100% relative humidity at room temperature. Table 15 summarizes the results:
Crystal ladostigil tartrate Form J1 was placed for 9 days under 0-100% relative humidity at room temperature.

[3] = Effect of micronization, pressing and grinding (XRD); type: physicochemical; details: pressing 1 minute at 100 metric tons
Method: The effects of micronization, pressing (1 minute at 100 metric tons) and grinding were determined by XRD and the following results were obtained: […]

[4] = Effect of freezing (XRD); type: physicochemical; details: freezer at about −25° C. for 3 months
Method: The effects of freezing was determined by XRD and the following results were obtained:
Form A1 was kept in a freezer at about −25° C. for 3 months. Form A1 transformed to Form A in freezer.

[5] = Water content (Karl Fischer) and loss on drying (TGA) of the form as obtained; type: physicochemical
Method: as §1, §2

[6] = 100% RH, 13 days, room temperature
[7] = 100% RH, 14 days, room temperature

Compound: C#CCN[C@@H]1CCc2ccc(OC(=O)N(C)CC)cc21 [Ladostigil, Ethyl-methyl-carbamic acid (R)-3-prop-2-ynylamino-indan-5-yl ester]
- Efficacy in animal models of Alzheimer's disease [1]: effective

Compound: carbamic acid, ethylmethyl-, (3R)-2,3-dihydro-3-(2-propynylamino)-1H-inden-5-yl ester, (2R,3R)-2,3-dihydroxybutanedioate (2:1) [Form A1, reference compound]
- KF (Karl Fischer analysis) ([2]; 0% RH, 13 days, room temperature): 0.3%
- KF (Karl Fischer analysis) ([2]; 20% RH, 13 days, room temperature): 0.3%
- KF (Karl Fischer analysis) ([2]; 40% RH, 13 days, room temperature): 0.3%
- KF (Karl Fischer analysis) ([2]; 60% RH, 13 days, room temperature): 0.3%
- TGA ([2]; 60% RH, 14 days, room temperature): 0.2
- KF (Karl Fischer analysis) ([2]; 80% RH, 13 days, room temperature): 0.3%
- TGA ([2]; 80% RH, 14 days, room temperature): 0.1
- KF (Karl Fischer analysis) [2, 6]: 0.5%
- Resulting form [2, 6]: partially transforms to form A
- Crystal Form (resulting form) [2, 7]: mixture of Form A and A1
- TGA [2, 7]: 0.1
- Hygroscopicity ([2]; conclusion in words): neither Form A nor Form A1 is hygroscopic
- Crystal form upon exposure to high relative humidity ([2]; high relative humidity, in words): transforms to form A
- Crystallinity after pressing [3]: lose some extent of crystallinity
- Crystal form after freezing [4]: Form A
- Weight loss / loss on drying by TGA [5]: 0.3%
- Water content ([5]; by weight): about 0.3%
